According to patent US12677825B2, “Composition for protecting islet transplantation” (LG CHEM, LTD., priority 2020, dated 2026):

How the values were obtained:
RINm5F cells = assay: Serum-deprived culture of RINm5F cells (viability, ROS); assay type: cell-based, rat; conditions: dose-dependent 0.1 μM to 20 μM
Description: Islets were isolated from heterozygous human islet amyloid polypeptide transgenic (hIAPP^+/−)FVB/N mice (Jackson Laboratory, Bar Harbor, ME, USA), […] mice (Orientbio, Sungnam, Korea), and cynomolgus monkeys (Macaca fascicularis; Orientbio, Sungnam, Korea). For additional in vitro studies, rat insulinoma cells (RINm5F cells) were treated with or without Compound 1 during culture under tert-butyl hydroperoxide (tBHP) exposure or serum deprivation condition. RINm5F cells were suspended in DMEM medium (Gibco, Grand Island, NY, USA) containing 100 IU/mL penicillin and 100 μg/mL streptomycin, and cultured at 37° C. in a fully humidified 5% CO2 atmosphere. All experimental protocols in this study were approved by the Institutional Animal Care and Use Committee (IACUC) of Samsung Biomedical Research Institute.

[1] = system: hIAPP oligomers in hIAPP+/− islets; assay: hIAPP oligomer accumulation (A11 antibody staining) after serum-deprived culture; assay type: cell-based, mouse; conditions: 72 hours serum-deprived culture, BSA+Compound 1 vs BSA group; FIG. 6F
Description: Purified hIAPP^+/− FVB/N and C57BL/6J mouse were suspended in RPMI 1640 (Gibco, Grand Island, NY, USA) containing 100 IU/mL penicillin and 100 μg/mL streptomycin, and cultured at 37° C. in a fully humidified 5% CO2 atmosphere. Purified NHP islets were suspended in CMRL 1066 medium (Coming Life Sciences, Tewksbury, MA; catalog number 99-663-CV) containing 100 IU/mL penicillin and 100 μg/mL streptomycin, and cultured at 37° C. in a fully humidified 5% CO2 atmosphere. During the ex vivo culture of murine islets, three experimental groups were designated for experiments using hIAPP^+/− FVB/N and C57BL/6J mice islets: medium supplemented with 10% FBS (Tissue Culture Biologicals, Los Alamitos, CA, USA; catalog number 101; FBS group), medium supplemented with 0.625% bovine serum albumin (Qbiogene, Carlsbad, CA, USA; catalog number BSA003; BSA group), and medium supplemented with 0, 0.1, 1, 10 and 20 μM Compoun 1 plus 0.625% BSA (BSA+Compound 1 group). […]
Accumulation of hIAPP oligomers was evaluated using sections of hIAPP^+/− mice islets stained with A11 Ab (anti-oligomer antibody, Invitrogen) and insulin antibody (Dako). […] To quantify accumulation of hIAPP oligomers per islet, the proportion of A11-stained cells among total DAPI+islet cells was determined using confocal microscopy.

[2] = system: TNF-α, IL-1β, IL-6, c-JUN and HMGB1; assay: Real-time qRT-PCR transcript levels during serum-deprived ex vivo culture; assay type: cell-based, mouse; conditions: after 1 and 3 days of ex vivo culture, BSA+Compound 1 vs BSA group; FIGS. 6C, 6D
Description: (§1) Purified hIAPP^+/− FVB/N and C57BL/6J mouse were suspended in RPMI 1640 (Gibco, Grand Island, NY, USA) containing 100 IU/mL penicillin and 100 μg/mL streptomycin, and cultured at 37° C. in a fully humidified 5% CO2 atmosphere. Purified NHP islets were suspended in CMRL 1066 medium (Coming Life Sciences, Tewksbury, MA; catalog number 99-663-CV) containing 100 IU/mL penicillin and 100 μg/mL streptomycin, and cultured at 37° C. in a fully humidified 5% CO2 atmosphere. […]
Harvested islets were treated with 500 μL Trizol (Life Technologies, Grand Island, NY, USA), and then 100 μL of chloroform was added. […] RNA purity was assessed by NanoDrop (Thermo Scientific, Wilmington, DE, USA) and agarose gel electrophoresis. […] Total RNA was reverse transcribed to quantify the expression of genes using the SuperScript™ II reverse transcription system (Life Technologies) according to the manufacturer's protocol.
Real-time qRT-PCR was performed using gene-specific primer pairs (Table 1). […] To quantify the expression level of genes, real-time PCR was performed using a SYBR premix kit (Takara Bio Inc., Tokyo, Japan) and an ABI Prism 7000 (Applied Biosystems, Foster City, CA, USA) according to the manufacturers' protocols.

[3] = system: hIAPP+/− FVB/N mice islets; assay: AO/PI staining viability during serum-deprived culture; assay type: cell-based, mouse; conditions: BSA culture 72 hours, with Compound 1 vs BSA alone; FIGS. 6A, 6B
Description: as §1
Islet viability after isolation and culture was assessed using double fluorescence in acridine orange (0.67 […]) and propidium iodide (75 […]) (AO/PI) staining to visualize the living and dead islet cells simultaneously. Fluorescent imaging was performed with a fluorescence microscope (Nikon ECLIPSE 80i, Tokyo, Japan) and live and dead areas were quantified using NIS-Element AR 3.0 (Nikon). The islet viability (%) was calculated as living islet cells/total islet cells×100.

[4] = system: wild type C57BL/6 mouse islets; assay: Effects of Compound 1 during isolation on wild type mouse islets (viability, function, cytokine expression); assay type: cell-based; conditions: Compound 1 during islet isolation; FIG. 2
Description: Mouse islets were isolated from 10- to 12-week-old hIAPP^+/− and C57BL/6 mice as described previously. Briefly, 0.8 mg/mL of collagenase P (Roche, Indianapolis, IN, USA) in Hank's buffered saline solution (HBSS, Sigma-Aldrich, St. Louis, MO, USA) with or without 20 μM Compound 1 were infused into the common bile duct for mouse pancreas digestion. Islets were purified from the digested pancreas using a Ficoll (Biochrom, Berlin, Germany) gradient and washed several times with 1 xHBSS. Isolated islets were cultured while free-floating in 10 mL of RPMI 1640 (Gibco, Grand Island, NY, USA). The medium was supplemented with 10% heat-inactivated FBS (fetal bovine serum) at 37° C. and 5% CO2 incubation prior to the ex vivo and in vivo studies.

For O=S1(=O)CCN(Cc2cc(NC3CCOCC3)c3[nH]c(-c4ccccc4)cc3c2)CC1 [Compound 1], the relative cell viability (RINm5F cells; serum deprivation, FIG. 4C) was “significantly increased”, the “serum deprivation-induced ROS” value (RINm5F cells; serum-deprived culture, FIG. 4E) was “decreased” and the “proportion of accumulation of hIAPP oligomers” value [1] was “significantly decreased”. For the same molecule, the “transcript levels of TNF-α, IL-1β, IL-6, c-JUN and HMGB1” value [2] was “significantly attenuated”, the “cell viability assessed by AO/PI staining” value [3] was “significantly improved” and the “reproduction of isolation results (viability, function, pro-inflammatory cytokine expression) in wild type islets” value [4] was “reproduced”.
